This assay concerns animal models of acute brain injuries such as intracranial hemorrhage. As to the kind of experiment: animal models of acute brain injuries such as intracranial hemorrhage. Type of assay: in vivo. From the text: MW189 is a novel small molecule drug candidate developed as a selective suppressor of disease- and injury-induced proinflammatory cytokine overproduction associated with destructive neuroinflammation/synaptic dysfunction cycles. […] The investigators seek to establish if these targets are modified in humans with intracranial hemorrhage.

For the molecule `c1ccc(-c2cc(-c3ccncc3)c(N3CCN(c4ncccn4)CC3)nn2)cc1` [MW189], the cerebral edema result is “reduces cerebral edema”; the “functional and cognitive performance” value is “improves functional and cognitive performance”; the neuroinflammation result was “attenuates neuroinflammation”.
